Laboratory results as given in US20220096515A1, “Methods and Formulations for Preventing Neurological or Psychiatric Disorders” (Huntington Medical Research Institutes, priority 2020, published 2022).

Columns and labels:
[1] = system: periventricular endothelial cells isolated from E15 wildtype (CD1) forebrain; assay: Endothelial cell proliferation in culture (confluency, BrdU labeling index); format: cell-based, mouse
Procedure: (§1) Primary culture of endothelial cells and endothelial cell staining: Embryonic brains were dissected under a stereo-microscope, after the NAD^+ treatment paradigm and the telencephalon was removed. Pial membranes were peeled off. Telencephalon without pial membranes from the periventricular region was pooled. Purity of endothelial cell cultures was established with endothelial cell markers and determined to be one hundred percent. Isolation and culture of endothelial cells were performed according to published methodology. Periventricular endothelial cells were prepared from CD1 (wild type), saline-treated Gabrb3^fl/fl, saline-treated Gabrb3^ECKO, and NAD^+-treated Gabrb3^ECKO embryos. Endothelial cells were labeled with anti-biotinylated isolectinB4 (1:100, Sigma), anti-GABA (1:400, Sigma), anti-DAXX (1:100, Santa Cruz Biotechnology) and anti-P2X4 (1:100, Abclonal) followed by secondary detection with AlexaFluor conjugates (Invitrogen). DAPI (Invitrogen) was used to label nuclei. Images were taken on an FSX100 microscope (Olympus). 1 million cells were examined for each immunohistochemistry condition.
Endothelial cell proliferation and long-distance cell migration assay: To test for cell proliferation, CD1 periventricular endothelial cells (1 million cells per experiment) were incubated in the presence of the mitotic marker 5-bromo-2′-deoxyuridine (0.05% BrdU) with or without muscimol, for 1 hour to examine the impact on proliferation of these cells and processed for BrdU immunohistochemistry.
In one experiment, periventricular endothelial cells were isolated from E15 wildtype (CD1) forebrain and tested the effect of NAD^+ addition in vitro. Exogenous addition of 100 μM NAD^+ was able to initiate significant endothelial cell proliferation within 2 days of culture and a 35 mm culture dish was confluent within 4-6 days (FIGS. 2A-2D). This was an interesting observation, since untreated periventricular endothelial cells take approximately 12 days to reach confluency in 35mm dishes, in our well-established culture conditions. […] Vital elements of angiogenesis include effective endothelial cell proliferation, migration, sprouting, alignment, tube formation and branching. […] In some areas of the dish, the NAD^+-treated endothelial cells seemed to align and fold into tubular shapes (FIG. 2H), aspects that we have not seen in wild type or untreated periventricular endothelial cells in normal culture conditions.
Effects of NAD^+ addition to periventricular endothelial cells isolated from E15 wildtype (CD1) forebrain was more robust than GABA. (FIGS. 17A-17F) Phase contrast images of periventricular endothelial cells cultured from E15 CD1 forebrain at different time points in untreated conditions (FIGS. 17A-17B) or after plating with NAD^+ addition (100 μM; FIGS. 17C-17D) or GABA addition (5 μM; FIGS. 17E-17F). […] (FIG. 17G) All groups of periventricular endothelial cells were exposed to BrdU (1 mM BrdU per ml medium) for 1 hour followed by Isolectin B4/BrdU double labeling. Quantification of BrdU labeling indices; Data represents mean±SD (n=8, *P<0.05; Student's t-test).

Daxx = Daxx mRNA and protein levels in endothelial cells after prenatal treatment; format: in vivo, mouse
Procedure: as §1
Quantitative real-time PCR: RT was performed by using iScript Reverse Transcription Supermix kit (Bio-Rad). […] The relative gene expression and subsequent fold changes among different samples were determined according to published methodology. […]

Gabrb3^ECKO mice = assay: Light-dark transition test; format: in vivo, mouse; conditions: after prenatal treatment
Procedure: Behavioral Experiments: Mice were housed in our animal facility with a 12-hour light cycle with ad libitum access to food and water. Offspring stayed with their mothers until weaning at PND 21 after which males and females were separated. Before all behavioral testing, mice were acclimated to the testing room for 1 hour. Behavioral assays were performed according to established protocols referenced here: self-grooming, light-dark box, tail suspension test, Y-maze, open field locomotion activity, three chamber social interaction test and nest building with nestlets and with shredded paper. Both males and females were used for all behavioral assays. Experimenters scoring behaviors were blinded to the genotypes and treatment. Sample sizes for each assay are noted in figure legends.
Anxiety was next assessed with the classic light-dark transition test which triggers a struggle between the desires to explore a novel environment versus natural aversion of a brightly illuminated open space. […] The Y maze spontaneous alternation test was used to evaluate for spatial learning and memory in the three groups of mice. After introduction to the center of the maze, the mice were given free access to all three arms. […] The total number of arm entries and the sequence of entries are recorded in order to calculate the percentage of alternation. […]

[2] = system: Gabrb3^ECKO endothelial cells; assay: GABA immunostaining and cluster formation of endothelial cells after prenatal treatment; format: in vivo, mouse
Procedure: as §1
Endothelial cell derived GABA plays dual roles in the embryonic forebrain. […]

[3] = system: Gabrb3^ECKO endothelial cells; assay: GABA secretion by ELISA after prenatal treatment; format: in vivo, mouse
Procedure: ELISA: Periventricular endothelial cells were prepared after the NAD^+ treatment paradigm, or after the treatment with purinergic receptor agonists/antagonists, and seeded in 12 well culture plates at 0.1×10^6 cells/well. Supernatants from endothelial cell cultures were collected after 96 hours and stored at −80° C. for ELISA. GABA concentrations were quantitatively determined by competitive ELISA according to the manufacturers' protocol (GABA Research ELISA kits, Labor Diagnostica Nord, Germany), and absorbance was measured using a multiplate microplate fluorescence reader (Molecular Devices, CA) at 450 nm.
Endothelial cell derived GABA plays dual roles in the embryonic forebrain. It not only activates a positive feedback cycle in endothelial cells that stimulates angiogenesis, but also is an essential chemo-attractive and guidance cue for promotion of long-distance migration of GABAergic interneurons. […] Since, Gad1 and Gad2 were rescued in Gabrb3^ECKO endothelial cells by the prenatal NAD^+ treatment (FIGS. 10H-10I), it was tested whether GABA expression was rescued in Gabrb3^ECKO endothelial cells (FIGS. 11A-11C). Control endothelial cells typically form tight networks or clusters under normal culture conditions. […] Next, we investigated the secretion of GABA by ELISA in the three groups. […]

NC(=O)c1ccc[n+]([C@@H]2O[C@H](COP(=O)([O-])OP(=O)(O)OC[C@H]3O[C@@H](n4cnc5c(N)ncnc54)[C@H](O)[C@@H]3O)[C@@H](O)[C@H]2O)c1 [NAD^+]
endothelial cell proliferation (phase contrast) ([1]; 100 μM): Robust proliferation | time to initiate significant endothelial cell proliferation ([1]; 100 μM NAD^+, days of culture): ≤ 2 days | time until 35 mm culture dish was confluent ([1]; 100 μM NAD^+, untreated cells approximately 12 days): 4 to 6 days | endothelial cell BrdU labeling index ([1]; NAD^+ addition vs untreated): significantly increased | Daxx mRNA and DAXX protein levels (Daxx): normalize DAXX levels | time in light vs dark sides (Gabrb3^ECKO mice): spent equivalent times between the light and dark sides of the open field | GABA expression (immunohistochemistry) [2]: GABA expression was also restored | endothelial cell cluster formation [2]: significantly improved cluster formation | GABA secretion (ELISA) [3]: rescued
